Laboratory results: PubChem BioAssay (NCI)
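Grown in 96-well plates, cells were treated for 48 hours with each compound at five concentrations. Insufficient inhibition: endpoint recorded as highest concentration tested. TGI denotes the concentration required for complete inhibition of growth.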

Columns and labels:
Test in all cases: inhibition of tumour cell growth, NCI panel, 48 h
[1] = tested on: SK-MEL-28 melanoma
[2] = tested on: BT-549 breast
[3] = tested on: NCI-H23 lung
[4] = tested on: NCI/ADR-RES ovarian
[5] = tested on: HCT-15 colon
[6] = tested on: MDA-MB-435
[7] = tested on: M14 melanoma
[8] = tested on: SF-539 CNS
[9] = tested on: SN12C renal
[10] = tested on: DU-145 prostate
[11] = tested on: ACHN renal
[12] = tested on: HOP-62 NSCLC
[13] = tested on: HCT-116 colon
[14] = tested on: EKVX NSCLC
[15] = tested on: COLO 205 colon
[16] = tested on: HOP-92 NSCLC
[17] = tested on: UACC-62 melanoma
[18] = tested on: NCI-H460 lung
[19] = tested on: SF-295 CNS
[20] = tested on: SW-620 colon
[21] = tested on: SK-MEL-5 melanoma
[22] = tested on: TK-10 renal
[23] = tested on: IGROV1 ovarian
[24] = tested on: KM12 colon
[25] = tested on: CCRF-CEM leukemia
[26] = tested on: CAKI-1 renal
[27] = tested on: SK-MEL-2 melanoma
[28] = tested on: A549 NSCLC
[29] = tested on: NCI-H226 lung
[30] = tested on: MDA-N
[31] = tested on: MDA-MB-231 breast
[32] = tested on: HT29 colon
[33] = tested on: RXF 393 renal
[34] = tested on: HS 578T breast
[35] = tested on: HL-60(TB) leukemia
[36] = tested on: T-47D breast
[37] = tested on: NCI-H522 lung
[38] = tested on: MALME-3M melanoma
[39] = tested on: LOX IMVI melanoma
[40] = tested on: SF-268 CNS
[41] = tested on: SNB-75 CNS
[42] = tested on: OVCAR-5 ovarian
[43] = tested on: OVCAR-8 ovarian
[44] = tested on: OVCAR-3 ovarian
[45] = tested on: PC-3 prostate
[46] = tested on: UACC-257 melanoma
[47] = tested on: OVCAR-4 ovarian
[48] = tested on: MOLT-4 leukemia
[49] = tested on: 786-0 renal
[50] = tested on: SNB-19 CNS
[51] = tested on: U251 CNS
[52] = tested on: SK-OV-3 ovarian
[53] = tested on: K-562 leukemia
[54] = tested on: HCC-2998 colon
[55] = tested on: UO-31 renal
[56] = tested on: RPMI-8226 leukemia
[57] = tested on: MCF7 breast
[58] = tested on: A498 renal
[59] = tested on: SR leukemia

Measured: TGI

COc1cc(N(CCC#N)CCC#N)ccc1/C=N\NC(=O)c1ccc(C)cc1
> 100 µM: [1] | [2] | [3] | [4] | [5] | [6] | [7] | [8] | [9] | [10] | [11] | [12] | [13] | [14] | [15] | [16] | [17] | [18] | [19] | [20] | [21] | [22] | [23] | [24] | [25] | [26] | [28] | [29] | [30] | [32] | [33] | [34] | [35] | [36] | [37] | [38] | [39] | [40] | [41] | [42] | [43] | [44] | [46] | [47] | [48] | [49] | [50] | [52] | [53]
36.7 µM: [31]
32.6 µM: [27]
31.1 µM: [45]
30.8 µM: [51]

CCCCCCCCC#CCCCCCCCCCC[C@@H]1C(=O)O[C@H](C)[C@@H]1O (tested in a mixture with another compound)
25.1 µM: [16]
38.1 µM: [50]
29.1 µM: [26] | [43]
26.8 µM: [21]
44 µM: [38]
32.7 µM: [23]
31.4 µM: [49]
46.4 µM: [27]
35.3 µM: [55]
94.6 µM: [31]
36.4 µM: [20]
28.8 µM: [39]
52.4 µM: [41]
35.8 µM: [18]
21.4 µM: [53]
54.9 µM: [14] | [47]
39 µM: [12]
38.6 µM: [44]
22.3 µM: [3]
50.5 µM: [57]
33.5 µM: [48]
30.4 µM: [40]
28.6 µM: [28]
41 µM: [7]
21.9 µM: [24]
18.8 µM: [37]
28.4 µM: [33]
38.5 µM: [2]
65.4 µM: [19]
23.8 µM: [4]
45.2 µM: [11]
39.9 µM: [56]
46.9 µM: [45]
32.3 µM: [9]
40.8 µM: [22]
> 100 µM: [54] | [1] | [5] | [13] | [15] | [29] | [36] | [42] | [58] | [46] | [51] | [52]
79.6 µM: [30]
42.1 µM: [8]

C[C@H](C1CC2(C)OC2(C)C(=O)O1)[C@H]1CC[C@H]2[C@@H]3[C@@H]4O[C@@H]4[C@@]4(O)CC=CC(=O)[C@]4(C)[C@H]3CC[C@]12C (stereo not given in full)
23.9 µM: [33]
19.8 µM: [41]
> 50 µM: [54] | [1] | [2] | [3] | [4] | [5] | [6] | [7] | [9] | [10] | [11] | [12] | [13] | [14] | [15] | [16] | [17] | [18] | [19] | [20] | [21] | [22] | [23] | [24] | [26] | [27] | [28] | [29] | [30] | [31] | [32] | [55] | [35] | [36] | [37] | [56] | [39] | [40] | [42] | [57] | [58] | [43] | [44] | [45] | [46] | [47] | [48] | [49] | [50] | [51] | [52] | [53]

CCN(CC)C(=O)Cn1c2c(c3ccccc31)CCCC2
> 100 µM: [54] | [1] | [2] | [3] | [4] | [5] | [6] | [7] | [8] | [9] | [11] | [59] | [12] | [13] | [14] | [15] | [16] | [17] | [18] | [19] | [20] | [21] | [22] | [23] | [25] | [26] | [27] | [28] | [30] | [32] | [34] | [55] | [35] | [56] | [38] | [39] | [40] | [42] | [57] | [58] | [43] | [45] | [46] | [49] | [50] | [52] | [53]
